Reference: patent US11845748B2, “Bicyclic pyridine N-oxide derivatives useful as a factor XIa inhibitors” (Janssen Pharmaceutica NV, priority 2021, dated 2023)

Tests used:
[1] = biological target: Factor XIa (Homo sapiens, UniProt P03951); test: Factor XIa inhibition assay utilizing a fluorophore-quencher pair peptide substrate (FLINT); type: biochemical; details: kinetic reads at 5 min intervals over 30 min; 30 min preincubation; 5Fam-KLTRAETV-K5Tamra substrate; read-out: FXIa (KIN) IC50
Text: Biological Example 1: Factor XIa Inhibition Assay Utilizing a Fluorophore-Quencher Pair Peptide Substrate
A fluorescence intensity (FLINT) based assay was used to monitor inhibition of Factor XIa. The peptide substrate, 5Fam-KLTRAETV-K5Tamra (purchased from New England Peptide) was chosen based on the […]. Conversion of zymogen […]. The custom peptide used in this assay was based on the Arg146 cleavage site of FXI. The peptide substrate was designed with a fluorophore-quencher pair, where the fluorescence is quenched until FXIa cleaves the 8-mer peptide after the Arg residue. The substrate KM was fit to a substrate inhibition model whereby kcat=0.86 s^−1, KM=12.4 μM, Ki=61.6 μM with an enzymatic efficiency, and kcat/KM=69523 M^−1s^−1.
The Factor XIa FLINT assay was used with the following 5Fam-KLTRAETV-K5Tamra assay buffer: 50 mM Tris, pH 7.5, 100 mM NaCl, 5 mM CaCl2, 0.1 mg/mL BSA, 0.03% CHAPS. Assay buffer was prepared by mixing all ingredients fresh. 5Fam-KLTRAETV-K5Tamra peptide substrate was first prepared at 10 mM in 100% DMSO, then diluted to 3 mM in 100% DMSO. Assay buffer was then added directly to the 3 mM stock of substrate to prepare the 30 μM 2× working concentration (15 μM final concentration). The 2× Factor XIa stock solution was prepared by diluting 6.562 μM stock in 1× assay buffer for a 200 pM working stock solution (100 pM final concentration).
Test compound(s) were run in an 11-point, 3-fold serial dilution with a final top compound concentration of 100 nM. Final DMSO in assay was 2%. FXIa was preincubated with compound for 30-minutes and then substrate was added to initiate the reaction. The assay was run with either end point (EP) reads at 30 min or kinetic (KIN) reads at 5 min intervals over 30 minutes. The time course was linear using 100 μM FXIa greater than 30 minutes. More specifically, the assay was run as follows: • 100 nL of 0.01 mM test compound was dispensed into black 384-well non-binding Greiner BioOne 784900 plate for 0.1 μM final concentration; • 5 μL of 1× assay buffer was dispensed to column 24 (low control) and 5 μL 2× Factor XIa solution was dispensed to columns 1-23 (column 23 high control); • the plate was centrifuged with a “cover” plate at 500 rpm for 1 min the plate was pre-incubated for 30 minutes at room temperature with plate covered; • 5 μL of 2× 5Fam-KLTRAETV-K5Tamra peptide substrate was dispensed into the entire plate, columns 1-24; • the plate was centrifuged with a “cover” plate at 500 rpm for 1 min; • the plate was read monitoring fluorescence intensity on the BMG PHERAStar at room temperature, using fluorescence module 485 nm/520 nm.
Percent inhibition (IC50) curves were generated per compound tested, and data was analyzed using a 4-parameter logistic fit using GeneData Screener. The relative fluorescence unit (RFU) values were normalized to percent inhibition using the following equation: % inhibition=((HC−LC)−(compound−LC)/(HC−LC))*100 where LC—low control=mean signal of no Factor XIa or 100% inhibition of Factor XIa; HC—high control=mean signal of Factor XIa+5Fam-KLTRAETV-K5Tamra peptide substrate with DMSO only.
(§1) An 11-point dose response curve for the test compound(s) was generated using GENDATA to determine IC50 value based on the following equation: Y=Bottom+(Top−Bottom)/(1+10^((log IC50−X)*HillSlope))
where Y is the % inhibition in the presence of X inhibitor concentration, Top=high control=mean signal of Factor XIa+5Fam-KLTRAETV-K5Tamra peptide substrate with DMSO only; Bottom=low control−mean signal of no Factor XIa or 100% inhibition of Factor XIa; HillSlope—Hill coefficient; and IC50=concentration of compound with 50% inhibition in relation to top/high control. […]

[2] = biological target: human plasma kallikrein (Homo sapiens, UniProt P03952); test: Kallikrein inhibition assay utilizing a quenched AMC peptide substrate (FLINT); type: biochemical; details: kinetic reads at 5 min intervals over 30 min; 30 min preincubation; Z-Gly-Pro-Arg-AMC substrate; read-out: Kallikrein (KIN) IC50
Sequence of human plasma kallikrein (P03952 391-638 limits assumed): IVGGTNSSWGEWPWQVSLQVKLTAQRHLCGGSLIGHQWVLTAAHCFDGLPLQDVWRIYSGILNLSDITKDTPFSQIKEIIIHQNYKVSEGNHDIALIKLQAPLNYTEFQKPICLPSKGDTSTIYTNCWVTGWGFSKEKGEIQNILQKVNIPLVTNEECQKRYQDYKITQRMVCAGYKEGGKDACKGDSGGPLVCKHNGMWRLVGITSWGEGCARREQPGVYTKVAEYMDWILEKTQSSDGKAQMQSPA
Sequence of human plasma kallikrein (P03952 20-390 partner limits assumed): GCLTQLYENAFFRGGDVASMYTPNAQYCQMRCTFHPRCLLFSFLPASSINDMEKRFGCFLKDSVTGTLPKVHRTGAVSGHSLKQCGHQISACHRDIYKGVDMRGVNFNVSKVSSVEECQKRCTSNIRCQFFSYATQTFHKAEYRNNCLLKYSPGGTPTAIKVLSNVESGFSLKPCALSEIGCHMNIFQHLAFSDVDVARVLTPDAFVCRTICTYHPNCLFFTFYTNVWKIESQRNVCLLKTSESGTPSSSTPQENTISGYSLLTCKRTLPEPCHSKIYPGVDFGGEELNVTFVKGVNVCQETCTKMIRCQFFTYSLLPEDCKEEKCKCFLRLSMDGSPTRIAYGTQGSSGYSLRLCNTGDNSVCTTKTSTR
Method: Biological Example 2: Kallikrein Inhibition Assay Utilizing a Quenched AMC Peptide Substrate
A fluorescence intensity (FLINT) based assay was used to monitor inhibition of human plasma kallikrein. The peptide substrate, Z-Gly-Pro-Arg-AMC (Purchased from Bachem; Catalog #I-1150) was chosen based on its relatively low KM for kallikrein which enables running the assay at lower substrate concentrations to control background fluorescence. The kinetic parameters for this substrate were determined by fitting titration data to the Michaelis-Menten equation yielding a KM=40 μM, kcat=0.76 s^−1, and kcat/KM=18932 M^−1s^−1.
The Kallikrein FLINT assay was used with the following Z-Gly-Pro-Arg-AMC assay buffer: 50 mM Tris, pH 7.5, 100 mM NaCl, 5 mM CaCl2, 0.1 mg/mL BSA, 0.03% CHAPS. Assay buffer was prepared by mixing all ingredients fresh. 2× Z-Gly-Pro-Arg-AMC peptide substrate was prepared by diluting 10 mM stock into 1× assay buffer for a 100 μM working concentration (50 μM final concentration). The 2× kallikrein stock solution was prepared by diluting 14.76 μM stock in 1× assay buffer for a 4 nM working stock solution (2 nM final concentration).
Test compound(s) were run in an 11-point, 3-fold serial dilution with a final top compound concentration of 1 μM. Final DMSO in assay was 2%. Plasma kallikrein was pre-incubated for 30-minute with compound and then 50 μM substrate was added to initiate the reaction. The assay was run with kinetic (KIN) reads at 5 min intervals over 30 minutes. The time course was linear using 2 nM kallikrein greater than 30 minutes. More specifically, the assay was run as follows: • 100 nL of 0.1 mM test compound was dispensed into black 384-well non-binding Greiner BioOne 784900 plate for 1 μM final concentration; • 5 μL of 1× assay buffer was dispensed to columns 24 (low control) and 5 μL 2× human kallikrein enzyme solution was dispensed to columns 1-23 (column 23 high control); • the plate was centrifuged with a “cover” plate at 500 rpm for 1 min the plate was pre-incubated for 30 minutes at room temperature with plate covered; • 5 μL of 2× Z-Gly-Pro-Arg-AMC peptide substrate was dispensed into the entire plate, columns 1-24; • the plate was centrifuged with a “cover” plate at 500 rpm for 1 min; • the plate was read monitoring fluorescence intensity on the BMG PHERAStar at room temperature, using fluorescence module 340 nm/440 nm.
Percent inhibition (IC50) curves were generated per compound tested, and data was analyzed using a 4-parameter logistic fit using GeneData Screener. The relative fluorescence unit (RFU) values were normalized to percent inhibition using the following equation: % inhibition=((HC−LC)−(compound−LC)/(HC−LC))*100
where LC—low control=mean signal of […] 100% inhibition of human kallikrein enzyme; HC—high control=mean signal of […]+Z-Gly-Pro-Arg-AMC peptide substrate with DMSO only.
as §1
where Y is the % inhibition in the presence of X inhibitor concentration, Top=high control=mean signal of human kallikrein enzyme+Z-Gly-Pro-Arg-AMC peptide substrate with DMSO only; Bottom=low control−mean signal of no human kallikrein enzyme or 100% inhibition of human kallikrein enzyme; HillSlope—Hill coefficient; and IC50=concentration of compound with 50% inhibition in relation to top/high control.
Representative compounds of formula (I) of the present invention were tested according to the procedure described in Biological Example 1 and Biological Example 2 above, with results as listed in Table 2, below. Results listed in the (ER) column were measured using endpoint reads where a single fluorescence reading was measured for each well at a 30 min timepoint. […]

Sequence of Factor XIa (P03951 388-625 limits assumed): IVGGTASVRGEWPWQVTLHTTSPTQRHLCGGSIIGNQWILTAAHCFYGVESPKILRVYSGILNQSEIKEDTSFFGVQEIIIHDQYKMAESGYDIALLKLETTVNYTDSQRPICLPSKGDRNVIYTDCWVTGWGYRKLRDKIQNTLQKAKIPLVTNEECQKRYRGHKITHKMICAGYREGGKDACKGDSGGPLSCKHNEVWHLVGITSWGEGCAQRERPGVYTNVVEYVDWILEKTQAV
Sequence of Factor XIa (P03951 19-387 partner limits assumed): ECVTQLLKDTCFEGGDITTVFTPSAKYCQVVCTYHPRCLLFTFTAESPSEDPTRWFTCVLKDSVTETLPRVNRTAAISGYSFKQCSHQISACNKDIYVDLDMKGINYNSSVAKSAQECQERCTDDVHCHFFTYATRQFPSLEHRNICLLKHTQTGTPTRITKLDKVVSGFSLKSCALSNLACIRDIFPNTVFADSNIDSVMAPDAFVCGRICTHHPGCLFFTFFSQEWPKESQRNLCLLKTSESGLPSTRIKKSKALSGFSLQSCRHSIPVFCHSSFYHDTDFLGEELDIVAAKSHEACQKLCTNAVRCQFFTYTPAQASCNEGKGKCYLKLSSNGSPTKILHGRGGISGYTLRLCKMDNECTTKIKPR

SMILES | IC50 [1] [nM] | IC50 [2] [nM]
Cn1ncc(-c2cnn(C3CCc4cc(-c5c(-n6cnnn6)ccc(Cl)c5F)c[n+]([O-])c43)c2)cc1=O (racemic) [ID No. 19, 3-(3-Chloro-2-fluoro-6-(1H-tetrazol-1-yl)phenyl)-7-(4-(1-methyl-6-oxo-1,6-dihydropyridazin-4-yl)-1H-pyrazol-1-yl)-6,7-dihydro-5H-cyclopenta[b]pyridine 1-oxide] | 1170 | 6360
Cn1c(-c2cnn(C3CCc4cc(-c5c(-n6cnnn6)ccc(Cl)c5F)c[n+]([O-])c43)c2)cccc1=O (racemic) [ID No. 20, 3-(3-Chloro-2-fluoro-6-(1H-tetrazol-1-yl)phenyl)-7-(4-(1-methyl-6-oxo-1,6-dihydropyridin-2-yl)-1H-pyrazol-1-yl)-6,7-dihydro-5H-cyclopenta[b]pyridine 1-oxide] | 3110 | > 10000
CC(=O)Nc1ccc(-c2cnn(C3CCCc4cc(-c5c(-n6cnnn6)ccc(Cl)c5F)c[n+]([O-])c43)c2)c(F)n1 (racemic) [ID No. 29, 8-(4-(6-Acetamido-2-fluoropyridin-3-yl)-1H-pyrazol-1-yl)-3-(3-chloro-2-fluoro-6-(1H-tetrazol-1-yl)phenyl)-5,6,7,8-tetrahydroquinoline 1-oxide] | 765 | 8480
Nc1nc(F)c(-c2cnn(C3CCCc4cc(-c5c(-n6cnnn6)ccc(Cl)c5F)c[n+]([O-])c43)c2)cc1Cl (racemic) [ID No. 30, 8-(4-(6-Amino-5-chloro-2-fluoropyridin-3-yl)-1H-pyrazol-1-yl)-3-(3-chloro-2-fluoro-6-(1H-tetrazol-1-yl)phenyl)-5,6,7,8-tetrahydroquinoline 1-oxide] | 1260 | 2880
Nc1ccc(-c2cnn(C3CCc4cc(-c5c(-n6cnnn6)ccc(Cl)c5F)c[n+]([O-])c43)c2)c(Cl)n1 (single isomer, unassigned) [ID No. 21, (R*)-7-(4-(6-Amino-2-chloropyridin-3-yl)-1H-pyrazol-1-yl)-3-(3-chloro-2-fluoro-6-(1H-tetrazol-1-yl)phenyl)-6,7-dihydro-5H-cyclopenta[b]pyridine 1-oxide] | 2380 | > 10000

Molecules with a lower IC50 [1], results first:

IC50 [1] [nM] | IC50 [2] [nM] | SMILES
25 | 316 | O=C(Nc1ccc(-c2cnn(C3CCc4cc(-c5c(-n6cnnn6)ccc(Cl)c5F)c[n+]([O-])c43)c2)cc1)C1CC1 (racemic) [ID No. 16, 3-(3-Chloro-2-fluoro-6-(1H-tetrazol-1-yl)phenyl)-7-(4-(4-(cyclopropanecarboxamido)phenyl)-1H-pyrazol-1-yl)-6,7-dihydro-5H-cyclopenta[b]pyridine 1-oxide]
5 | 432 | Nc1ccc(-c2cnn(C3CCc4cc(-c5c(-n6cnnn6)ccc(Cl)c5F)c[n+]([O-])c43)c2)c(Cl)n1 (racemic) [ID No. 17, 7-(4-(6-Amino-2-chloropyridin-3-yl)-1H-pyrazol-1-yl)-3-(3-Chloro-2-fluoro-6-(1H-tetrazol-1-yl)phenyl)-6,7-dihydro-5H-cyclopenta[b]pyridine 1-oxide]
282 | 1090 | O=C(NC1CC1)c1ccc(-c2cnn(C3CCc4cc(-c5c(-n6cnnn6)ccc(Cl)c5F)c[n+]([O-])c43)c2)cc1 (racemic) [ID No. 18, 3-(3-Chloro-2-fluoro-6-(1H-tetrazol-1-yl)phenyl)-7-(4-(4-(cyclopropylcarbamoyl)phenyl)-1H-pyrazol-1-yl)-6,7-dihydro-5H-cyclopenta[b]pyridine 1-oxide]
32 | 393 | Cc1cc(-c2cnn(C3CCc4cc(-c5c(-n6cnnn6)ccc(Cl)c5F)c[n+]([O-])c43)c2)ccn1 (racemic) [ID No. 23, 3-(3-Chloro-2-fluoro-6-(1H-tetrazol-1-yl)phenyl)-7-(4-(2-methylpyridin-4-yl)-1H-pyrazol-1-yl)-6,7-dihydro-5H-cyclopenta[b]pyridine 1-oxide]
40 | 70 | [O-][n+]1cc(-c2c(-n3cnnn3)ccc(Cl)c2F)cc2c1C(n1cc(-c3ccnc(C4CC4)c3)cn1)CC2 (racemic) [ID No. 24, 3-(3-Chloro-2-fluoro-6-(1H-tetrazol-1-yl)phenyl)-7-(4-(2-cyclopropylpyridin-4-yl)-1H-pyrazol-1-yl)-6,7-dihydro-5H-cyclopenta[b]pyridine 1-oxide]
3 | 176 | Nc1ccc(-c2cnn(C3CCc4cc(-c5c(-n6cnnn6)ccc(Cl)c5F)c[n+]([O-])c43)c2)c(Cl)n1 (single isomer, unassigned) [ID No. 22, (S*)-7-(4-(6-Amino-2-chloropyridin-3-yl)-1H-pyrazol-1-yl)-3-(3-chloro-2-fluoro-6-(1H-tetrazol-1-yl)phenyl)-6,7-dihydro-5H-cyclopenta[b]pyridine 1-oxide]
